Laboratory results from the NIST ThermoML archive (doi:10.1021/acs.jced.5b00544).
± gives the expanded uncertainty stated by the source.

Assay: mean ionic activity coefficient (dimensionless); mn = molality of the nth substance listed, in mol/kg
Conditions: 101 kPa, Liquid

For `[Cl-].[Na+]` [sodium chloride] + O, the “mean ionic activity coefficient” value (273.15 K, m1 = 0.1) was 0.781 ± 0.05, the “mean ionic activity coefficient” value (273.15 K, m1 = 0.2) was 0.734 ± 0.05 and the “mean ionic activity coefficient” value (273.15 K, m1 = 0.25) was 0.719 ± 0.05. For the same compound, the “mean ionic activity coefficient” value (273.15 K, m1 = 0.5) was 0.672 ± 0.05, the “mean ionic activity coefficient” value (273.15 K, m1 = 0.7) was 0.651 ± 0.05 and the “mean ionic activity coefficient” value (273.15 K, m1 = 0.75) was 0.646 ± 0.05. For the same compound, the “mean ionic activity coefficient” value (273.15 K, m1 = 1) was 0.629 ± 0.05, the “mean ionic activity coefficient” value (283.15 K, m1 = 0.1) was 0.78 ± 0.05 and the “mean ionic activity coefficient” value (283.15 K, m1 = 0.2) was 0.735 ± 0.05. For the same compound, the “mean ionic activity coefficient” value (283.15 K, m1 = 0.25) was 0.72 ± 0.05, the “mean ionic activity coefficient” value (283.15 K, m1 = 0.5) was 0.677 ± 0.05 and the “mean ionic activity coefficient” value (283.15 K, m1 = 0.7) was 0.658 ± 0.05. The “mean ionic activity coefficient” value (283.15 K, m1 = 0.75) was 0.655 ± 0.05, the “mean ionic activity coefficient” value (283.15 K, m1 = 1) was 0.641 ± 0.05 and the “mean ionic activity coefficient” value (293.15 K, m1 = 0.1) was 0.779 ± 0.05. The “mean ionic activity coefficient” value (293.15 K, m1 = 0.2) was 0.735 ± 0.05, the “mean ionic activity coefficient” value (293.15 K, m1 = 0.25) was 0.721 ± 0.05 and the “mean ionic activity coefficient” value (293.15 K, m1 = 0.5) was 0.681 ± 0.05. For the same compound, the “mean ionic activity coefficient” value (293.15 K, m1 = 0.7) was 0.665 ± 0.05, the “mean ionic activity coefficient” value (293.15 K, m1 = 0.75) was 0.662 ± 0.05 and the “mean ionic activity coefficient” value (293.15 K, m1 = 1) was 0.653 ± 0.05. For the same compound, the “mean ionic activity coefficient” value (303.15 K, m1 = 0.1) was 0.777 ± 0.05, the “mean ionic activity coefficient” value (303.15 K, m1 = 0.2) was 0.732 ± 0.05 and the “mean ionic activity coefficient” value (303.15 K, m1 = 0.25) was 0.718 ± 0.05. The “mean ionic activity coefficient” value (303.15 K, m1 = 0.5) was 0.68 ± 0.05, the “mean ionic activity coefficient” value (303.15 K, m1 = 0.7) was 0.666 ± 0.05 and the “mean ionic activity coefficient” value (303.15 K, m1 = 0.75) was 0.663 ± 0.05. The “mean ionic activity coefficient” value (303.15 K, m1 = 1) was 0.655 ± 0.05, the “mean ionic activity coefficient” value (313.15 K, m1 = 0.1) was 0.774 ± 0.05 and the “mean ionic activity coefficient” value (313.15 K, m1 = 0.2) was 0.729 ± 0.05. The “mean ionic activity coefficient” value (313.15 K, m1 = 0.25) was 0.715 ± 0.05, the “mean ionic activity coefficient” value (313.15 K, m1 = 0.5) was 0.678 ± 0.05 and the “mean ionic activity coefficient” value (313.15 K, m1 = 0.7) was 0.664 ± 0.05. For the same compound, the “mean ionic activity coefficient” value (313.15 K, m1 = 0.75) was 0.662 ± 0.05, the “mean ionic activity coefficient” value (313.15 K, m1 = 1) was 0.655 ± 0.05 and the “mean ionic activity coefficient” value (323.15 K, m1 = 0.1) was 0.77 ± 0.05. The “mean ionic activity coefficient” value (323.15 K, m1 = 0.2) was 0.725 ± 0.05, the “mean ionic activity coefficient” value (323.15 K, m1 = 0.25) was 0.711 ± 0.05 and the “mean ionic activity coefficient” value (323.15 K, m1 = 0.5) was 0.674 ± 0.05. The “mean ionic activity coefficient” value (323.15 K, m1 = 0.7) was 0.66 ± 0.05, the “mean ionic activity coefficient” value (323.15 K, m1 = 0.75) was 0.658 ± 0.05 and the “mean ionic activity coefficient” value (323.15 K, m1 = 1) was 0.652 ± 0.05. The “mean ionic activity coefficient” value (333.15 K, m1 = 0.1) was 0.766 ± 0.05, the “mean ionic activity coefficient” value (333.15 K, m1 = 0.2) was 0.72 ± 0.05 and the “mean ionic activity coefficient” value (333.15 K, m1 = 0.25) was 0.706 ± 0.05. For the same compound, the “mean ionic activity coefficient” value (333.15 K, m1 = 0.5) was 0.667 ± 0.05, the “mean ionic activity coefficient” value (333.15 K, m1 = 0.7) was 0.653 ± 0.05 and the “mean ionic activity coefficient” value (333.15 K, m1 = 0.75) was 0.651 ± 0.05. The “mean ionic activity coefficient” value (333.15 K, m1 = 1) was 0.644 ± 0.05, the “mean ionic activity coefficient” value (343.15 K, m1 = 0.1) was 0.761 ± 0.05 and the “mean ionic activity coefficient” value (343.15 K, m1 = 0.2) was 0.713 ± 0.05. For the same compound, the “mean ionic activity coefficient” value (343.15 K, m1 = 0.25) was 0.699 ± 0.05, the “mean ionic activity coefficient” value (343.15 K, m1 = 0.5) was 0.659 ± 0.05 and the “mean ionic activity coefficient” value (343.15 K, m1 = 0.7) was 0.644 ± 0.05. The “mean ionic activity coefficient” value (343.15 K, m1 = 0.75) was 0.641 ± 0.05, the “mean ionic activity coefficient” value (343.15 K, m1 = 1) was 0.633 ± 0.05 and the “mean ionic activity coefficient” value (353.15 K, m1 = 0.1) was 0.752 ± 0.05. The “mean ionic activity coefficient” value (353.15 K, m1 = 0.2) was 0.703 ± 0.05, the “mean ionic activity coefficient” value (353.15 K, m1 = 0.25) was 0.688 ± 0.05 and the “mean ionic activity coefficient” value (353.15 K, m1 = 0.5) was 0.647 ± 0.05. The “mean ionic activity coefficient” value (353.15 K, m1 = 0.7) was 0.633 ± 0.05, the “mean ionic activity coefficient” value (353.15 K, m1 = 0.75) was 0.631 ± 0.05 and the “mean ionic activity coefficient” value (353.15 K, m1 = 1) was 0.624 ± 0.05.

With `[Cl-].[K+]` [potassium chloride] + O the “mean ionic activity coefficient” value (273.15 K, m1 = 0.1) was 0.772 ± 0.05, the “mean ionic activity coefficient” value (273.15 K, m1 = 0.2) was 0.719 ± 0.05 and the “mean ionic activity coefficient” value (273.15 K, m1 = 0.5) was 0.643 ± 0.05. For the same compound, the “mean ionic activity coefficient” value (273.15 K, m1 = 1) was 0.581 ± 0.05, the “mean ionic activity coefficient” value (283.15 K, m1 = 0.1) was 0.771 ± 0.05 and the “mean ionic activity coefficient” value (283.15 K, m1 = 0.2) was 0.719 ± 0.05. The “mean ionic activity coefficient” value (283.15 K, m1 = 0.5) was 0.647 ± 0.05, the “mean ionic activity coefficient” value (283.15 K, m1 = 1) was 0.592 ± 0.05 and the “mean ionic activity coefficient” value (293.15 K, m1 = 0.1) was 0.77 ± 0.05. For the same compound, the “mean ionic activity coefficient” value (293.15 K, m1 = 0.2) was 0.719 ± 0.05, the “mean ionic activity coefficient” value (293.15 K, m1 = 0.5) was 0.651 ± 0.05 and the “mean ionic activity coefficient” value (293.15 K, m1 = 1) was 0.602 ± 0.05. For the same compound, the “mean ionic activity coefficient” value (303.15 K, m1 = 0.1) was 0.767 ± 0.05, the “mean ionic activity coefficient” value (303.15 K, m1 = 0.2) was 0.716 ± 0.05 and the “mean ionic activity coefficient” value (303.15 K, m1 = 0.5) was 0.649 ± 0.05. For the same compound, the “mean ionic activity coefficient” value (303.15 K, m1 = 1) was 0.602 ± 0.05, the “mean ionic activity coefficient” value (313.15 K, m1 = 0.1) was 0.764 ± 0.05 and the “mean ionic activity coefficient” value (313.15 K, m1 = 0.2) was 0.714 ± 0.05. For the same compound, the “mean ionic activity coefficient” value (313.15 K, m1 = 0.5) was 0.647 ± 0.05, the “mean ionic activity coefficient” value (313.15 K, m1 = 1) was 0.603 ± 0.05 and the “mean ionic activity coefficient” value (323.15 K, m1 = 0.1) was 0.761 ± 0.05. For the same compound, the “mean ionic activity coefficient” value (323.15 K, m1 = 0.2) was 0.71 ± 0.05, the “mean ionic activity coefficient” value (323.15 K, m1 = 0.5) was 0.644 ± 0.05 and the “mean ionic activity coefficient” value (323.15 K, m1 = 1) was 0.601 ± 0.05. For the same compound, the “mean ionic activity coefficient” value (333.15 K, m1 = 0.1) was 0.757 ± 0.05, the “mean ionic activity coefficient” value (333.15 K, m1 = 0.2) was 0.705 ± 0.05 and the “mean ionic activity coefficient” value (333.15 K, m1 = 0.5) was 0.638 ± 0.05. The “mean ionic activity coefficient” value (333.15 K, m1 = 1) was 0.596 ± 0.05, the “mean ionic activity coefficient” value (343.15 K, m1 = 0.1) was 0.752 ± 0.05 and the “mean ionic activity coefficient” value (343.15 K, m1 = 0.2) was 0.699 ± 0.05. The “mean ionic activity coefficient” value (343.15 K, m1 = 0.5) was 0.632 ± 0.05 and the “mean ionic activity coefficient” value (343.15 K, m1 = 1) was 0.588 ± 0.05.
